# Measured values as given in US12655126B2, “Imidazole-pyrazole derivatives as antibacterials” (Hoffmann-La Roche Inc., priority 2020, dated 2026).
# Counter-ions that a name gives are not always drawn.
# System: Acinetobacter baumannii ATCC17961
# Assay: Antimicrobial susceptibility testing: 90% growth inhibitory concentration (IC90) determination
# Type: cell-based
# Conditions: Acinetobacter baumannii ATCC17961; Iso-Sensitest broth; growth by OD 600 nm over 16 h; 90% growth inhibitory concentration; read-out: ATCC 17961 IC90
# How it was run: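 Broth microdilution in Iso-Sensitest medium with twofold dilutions (e.g. 50 to 0.097 μM final) and inoculum ~5×10^(5) CFU/ml, 35±2 °C. OD600 was followed for 16 h; IC90 was derived from inhibition during logarithmic growth.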
row,IC90 [nM],Structure (SMILES)
1,610,"Cn1c(-c2cn(-c3ccc(N)cn3)nc2C(F)(F)F)cnc1C(=O)Nc1ccc(C(=O)N2CCC(C(=O)N3CC[N+](C)(C)CC3)CC2)c(Cl)c1 [Example H1, 5-[1-(5-Amino-2-pyridyl)-3-(trifluoromethyl)pyrazol-4-yl]-N-[3-chloro-4-[4-(4,4-dimethylpiperazin-4-ium-1-carbonyl)piperidine-1-carbonyl]phenyl]-1-methyl-imidazole-2-carboxamide; formate]"
2,10000,"Cc1nn(-c2ccc(N)cn2)cc1-c1cnc(C(=O)Nc2ccc(C(=O)N3CCN(C(=O)C4CC[N+](C)(C)CC4)CC3)c(Cl)c2)n1C [Example J3, 5-[1-(5-amino-2-pyridyl)-3-methyl-pyrazol-4-yl]-N-[3-chloro-4-[4-(1,1-dimethylpiperidin-1-ium-4-carbonyl)piperazine-1-carbonyl]phenyl]-1-methyl-imidazole-2-carboxamide; formate]"
3,370,"CNc1ccc(-n2cc(-c3cnc(C(=O)Nc4ccc(C(=O)N5CCN(C(=O)[C@@H]6[C@@H](O)CC[N+]6(C)C)CC5)c(Cl)c4)n3C)c(C(F)(F)F)n2)nc1 [Example E6, N-[3-chloro-4-[4-[(2S,3S)-3-hydroxy-1,1-dimethyl-pyrrolidin-1-ium-2-carbonyl]piperazine-1-carbonyl]phenyl]-1-methyl-5-[1-[5-(methylamino)-2-pyridyl]-3-(trifluoromethyl)pyrazol-4-yl]imidazole-2-carboxamide; formate]"
4,220,"CNc1ccc(-n2cc(-c3cnc(C(=O)Nc4ccc(C(=O)N5CCN(C(=O)[C@@H]6CC[N+](C)(C)C[C@H]6O)CC5)c(Cl)c4)n3C)c(C(F)(F)F)n2)nc1 [Example E8, N-[3-chloro-4-[4-[(3S,4R)-3-hydroxy-1,1-dimethyl-piperidin-1-ium-4-carbonyl]piperazine-1-carbonyl]phenyl]-1-methyl-5-[1-[5-(methylamino)-2-pyridyl]-3-(trifluoromethyl)pyrazol-4-yl]imidazole-2-carboxamide; formate]"

# Continued, compound first:
row,Structure (SMILES),IC90 [nM]
1,"COc1ccc(-n2cc(-c3cnc(C(=O)Nc4ccc(C(=O)N5CCN(C(=O)[C@@H]6C[C@@H](O)C[N+]6(C)C)CC5)c(Cl)c4)n3C)c(C(F)(F)F)n2)nc1 [Example B6, N-[3-chloro-4-[4-[(2S,4R)-4-hydroxy-1,1-dimethyl-pyrrolidin-1-ium-2-carbonyl]piperazine-1-carbonyl]phenyl]-5-[1-(5-methoxy-2-pyridyl)-3-(trifluoromethyl)pyrazol-4-yl]-1-methyl-imidazole-2-carboxamide; formate]",360
2,"Cn1c(-c2cn(-c3ccc(N)cn3)nc2C(F)(F)F)cnc1C(=O)Nc1ccc(C(=O)NCC2CCN(C(=O)C3CC[N+](C)(C)CC3)CC2)c(Cl)c1 [Example D12, 5-[1-(5-amino-2-pyridyl)-3-(trifluoromethyl)pyrazol-4-yl]-N-[3-chloro-4-[[1-(1,1-dimethylpiperidin-1-ium-4-carbonyl)-4-piperidyl]methylcarbamoyl]phenyl]-1-methyl-imidazole-2-carboxamide; formate]",1300
3,"COc1ccc(-n2cc(-c3cnc(C(=O)Nc4ccc(C(=O)N5CCN(C(=O)[C@@H]6CC[N+](C)(C)C[C@H]6O)CC5)c(Cl)c4)n3C)c(C(F)(F)F)n2)nc1 [Example B5, N-[3-chloro-4-[4-[(3S,4R)-3-hydroxy-1,1-dimethyl-piperidin-1-ium-4-carbonyl]piperazine-1-carbonyl]phenyl]-5-[1-(5-methoxy-2-pyridyl)-3-(trifluoromethyl)pyrazol-4-yl]-1-methyl-imidazole-2-carboxamide]",310
4,"Cn1c(-c2cn(-c3ccc(N)cn3)nc2C(F)(F)F)cnc1C(=O)Nc1ccc(C(=O)N2CCN(C(=O)C[N+]3(C)CCC(O)C3)CC2)c(Cl)c1 (stereo not shown) [Example D11, 5-[1-(5-amino-2-pyridyl)-3-(trifluoromethyl)pyrazol-4-yl]-N-[3-chloro-4-[4-[2-(3-hydroxy-1-methyl-pyrrolidin-1-ium-1-yl)acetyl]piperazine-1-carbonyl]phenyl]-1-methyl-imidazole-2-carboxamide; formate]",210

# Same assay, conditions: Acinetobacter baumannii, ATCC17961, 16 h, read-out: ATCC 17961 IC90
row,Structure (SMILES),IC90 [nM]
1,"Cn1c(-c2cn(-c3ccc(N)cn3)nc2C(F)(F)F)cnc1C(=O)Nc1ccc(C(=O)N2CCN(C(=O)[C@@H]3C[C@@H](O)C[N+]3(C)C)CC2)c(Cl)c1 [Example D1, 5-[1-(5-Amino-2-pyridyl)-3-(trifluoromethyl)pyrazol-4-yl]-N-[3-chloro-4-[4-[(2S,4R)-4-hydroxy-1,1-dimethyl-pyrrolidin-1-ium-2-carbonyl]piperazine-1-carbonyl]phenyl]-1-methyl-imidazole-2-carboxamide; formate]",310
2,"CNc1ccc(-n2cc(-c3cnc(C(=O)Nc4ccc(C(=O)N5CCN(C(=O)C6CC[N+](C)(C)CC6)CC5)c(Cl)c4)n3C)c(C(F)(F)F)n2)nc1 [Example E1, N-[3-Chloro-4-[4-(1,1-dimethylpiperidin-1-ium-4-carbonyl)piperazine-1-carbonyl]phenyl]-1-methyl-5-[1-[5-(methylamino)-2-pyridyl]-3-(trifluoromethyl)pyrazol-4-yl]imidazole-2-carboxamide; formate]",100
